Experiments:
rat liver = test: Histopathological examination of DMN-induced liver damage; type: in vivo
Experimental: A rat hepatic fibrosis model was set up through the use of DMN. DMN is a potent hepatoxin that specifically targets the liver and can cause liver fibrosis. The histopathological changes resulting from DMN treatment involve the rapid deposition of collagen, the major protein of fibrosis and important to the process of cirrhosis. […] The DMN-induced liver fibrosis model was performed as described in Jezequel A. M. et al. (14). Male Sprague-Dawley rats (Slc:SD; Japan SLC, Shizuoka, Japan), weighing from 300 to 350 grams, were used in the experiments. To induce hepatic fibrosis over a six-week time course experiment, the rats were given DMN (Sigma, Saint Louis, Mo.), dissolved in normal saline, three consecutive days a week for the first three consecutive weeks at the dosage of 6.7 mg/kg per body weight by intraperitoneal injection. Injection time points are shown as inverted triangles in FIG. 1. Injections were at a much lower dosage than those used in other experiments where the dosage was 100 mg/kg/day. The higher dosage can cause toxicity in rat liver (21, 22).)
Two to seven rats at each time point were treated with either DMN or with an equal volume of normal saline without DMN as the control (26 DMN-treated rats and 24 control rats). Rats were weighed and sacrificed on days 11, 18, 25, 32, 39, and 46 (sacrifice time points are shown as triangles in FIG. 1A) respectively. These triangular time points were designated as weeks 1 through 6 (FIG. 1A).
Liver tissues were immediately removed after sacrifice and subject to histopathological examination. The fixed liver samples were then processed for paraffin embedding. Five micrometer (5 μm) sections were prepared for hematoxylin and eosin staining (to score necroinflammatory and fatty changes) and for Sirius red/fast green collagen staining (to score for fibrosis) (23). The fatty changes were classified as presence (+) or absence (−).
In FIG. 2A, the representative phenotypes of the DMN-induced rat liver fibrosis were characterized by scoring the four histopathological features (necrosis, inflammation, fibrosis, and fatty change) as follows: the necrosis scores were from N0 to N3 (the first panel), and the inflammation scores were from I0 to I3. The scoring system for examining the intensity of liver fibrosis was modified from the scoring system of the Hepatitis Activity Index (HAI) (29, 30). Fibrosis was divided into four scores: normal (F0), fibrous expansion of portal tracts (F1), bridging fibrosis (F2) and frequent bridging fibrosis with focal nodule formation (F3). The fatty change was scored as present (+) or absent (−), respectively (the last panel). The images of the fatty change are shown at 200× magnification, whereas the others are shown at 100× magnification (FIG. 2A).
The results were ranked by time course. The necroinflammatory scores were the sum of the necrosis and inflammation scores and range from A0 to A6. The necroinflammatory change was divided into three grades: A0=none, A(1-3)=mild and A(4-6)=moderate necroinflammation. The fibrosis change was divided into two grades: F(0-1)=normal to fibrous expansion of portal tracts, F(2-3)=bridge fibrosis to frequent bridging fibrosis with nodule formation. The fatty change was shown as presence (+) or absence (−). The number of rats was counted and used to calculate the percentage of each histopathological level at each time point.

rat liver transcripts = test: Affymetrix Rat Genome U34A microarray gene expression profiling of liver of DMN-treated rats; type: in vivo
Text: Protocols and reagents for hybridization, washing and staining followed Affymetrix's instructions, which may be retrieved from Affymetrix's company website. Labeled cRNA was hybridized to the Affymetrix GeneChip Test 3 Array to verify the quality prior to hybridization to the Affymetrix Rat Genome U34A Array.
The microarray images were transformed into text files containing intensity information using GENECHIP® Operating Software (GCOS) developed by ® Affymetrix. The microarray datasets were then analyzed using GENESPRING® 7.2 software (Silicon Genetics, Redwood City, Calif., U.S.A.)
Over the six week time course of the experiment, the liver tissues of 12 control animals and 12 DMN-treated rats (2 rats for each time point) were selected to perform microarray experiments. Before any statistical analyses were applied to the microarray data, reproducibility was assessed. Genes were selected as present when they were assigned a present call according to the perfect match (PM)/mismatch (MM) algorithm of Affymetrix in all gene chips (28). Of the 8799 probe sets analyzed, overall expression patterns for 2385 transcripts on the chips were reported to be present (P<0.05). […] Scattered graphs of expression levels of the 2385 transcripts represented on the microarray were compared with each other. The relationship between the experimental chips in the microarray analysis was analyzed by linear regression. Overall, there was no statistical difference, with 3.2% of transcripts deviating more than 2-fold. To investigate the time course variability, the reliable signals of these 2385 probe sets between the first and sixth week of controls, were calculated. Again, there was no statistical difference, with 4.6% of transcripts deviating more than 2-fold. In contrast, a significant scatter was found between controls and DMN-treated groups, with 28.7% of transcripts deviating more than 2-fold. […]

With `CN(C)N=O` [DMN, Dimethylnitrosamine] as the compound, how does the “abnormality in the kidney or spleen” value (rat liver; DMN-treated rats, data not shown) read?
The value was “no clear abnormality”.

What about the “DMN-treated rats with none (F0) or low levels of fibrosis (F1)” value (rat liver; first two weeks, 6.7 mg/kg i.p.) of the same compound?
Its value is “seventy-five”.

And the “DMN-treated rats with F2 and F3 fibrosis” value (rat liver; last two weeks)?
Its value is 78%.

And the “treated rats with fatty changes present” value (rat liver; six-week time course)?
The value was 3.7%.

What about the “DMN-treated rats with high levels of fibrosis (F2 to F3)” value (rat liver; third to fourth week) of the same compound?
The value was about 90%.

What about the “transcripts deviating more than 2-fold between controls and DMN-treated groups” value (rat liver transcripts; 2385 present transcripts) of the same compound?
Its value is 28.7%.

And the “Timp1 expression elevation in DMN treated rats” value (rat liver transcripts; microarray)?
Its value is “more than twenty”.

What about the CD63 expression (rat liver transcripts; microarray, after DMN treatment) of the same compound?
Its CD63 expression is “up-regulated”.

From patent US7972785B2, “Biomarkers for liver fibrotic injury” (Industrial Technology Research Institute (ITRI), priority 2006, dated 2011)
